Our source for the IC50 values is patent US20210198277A1, “AMINE-SUBSTITUTED ARYL OR HETEROARYL COMPOUNDS” (Epizyme, Inc., priority 2016, published 2021).

This experiment concerns the target T1, EHMT2 (Homo sapiens, UniProt Q96KQ7).
T1 construct: host or cells: MDA-MB-231
T1 sequence (Q96KQ7 1-1210): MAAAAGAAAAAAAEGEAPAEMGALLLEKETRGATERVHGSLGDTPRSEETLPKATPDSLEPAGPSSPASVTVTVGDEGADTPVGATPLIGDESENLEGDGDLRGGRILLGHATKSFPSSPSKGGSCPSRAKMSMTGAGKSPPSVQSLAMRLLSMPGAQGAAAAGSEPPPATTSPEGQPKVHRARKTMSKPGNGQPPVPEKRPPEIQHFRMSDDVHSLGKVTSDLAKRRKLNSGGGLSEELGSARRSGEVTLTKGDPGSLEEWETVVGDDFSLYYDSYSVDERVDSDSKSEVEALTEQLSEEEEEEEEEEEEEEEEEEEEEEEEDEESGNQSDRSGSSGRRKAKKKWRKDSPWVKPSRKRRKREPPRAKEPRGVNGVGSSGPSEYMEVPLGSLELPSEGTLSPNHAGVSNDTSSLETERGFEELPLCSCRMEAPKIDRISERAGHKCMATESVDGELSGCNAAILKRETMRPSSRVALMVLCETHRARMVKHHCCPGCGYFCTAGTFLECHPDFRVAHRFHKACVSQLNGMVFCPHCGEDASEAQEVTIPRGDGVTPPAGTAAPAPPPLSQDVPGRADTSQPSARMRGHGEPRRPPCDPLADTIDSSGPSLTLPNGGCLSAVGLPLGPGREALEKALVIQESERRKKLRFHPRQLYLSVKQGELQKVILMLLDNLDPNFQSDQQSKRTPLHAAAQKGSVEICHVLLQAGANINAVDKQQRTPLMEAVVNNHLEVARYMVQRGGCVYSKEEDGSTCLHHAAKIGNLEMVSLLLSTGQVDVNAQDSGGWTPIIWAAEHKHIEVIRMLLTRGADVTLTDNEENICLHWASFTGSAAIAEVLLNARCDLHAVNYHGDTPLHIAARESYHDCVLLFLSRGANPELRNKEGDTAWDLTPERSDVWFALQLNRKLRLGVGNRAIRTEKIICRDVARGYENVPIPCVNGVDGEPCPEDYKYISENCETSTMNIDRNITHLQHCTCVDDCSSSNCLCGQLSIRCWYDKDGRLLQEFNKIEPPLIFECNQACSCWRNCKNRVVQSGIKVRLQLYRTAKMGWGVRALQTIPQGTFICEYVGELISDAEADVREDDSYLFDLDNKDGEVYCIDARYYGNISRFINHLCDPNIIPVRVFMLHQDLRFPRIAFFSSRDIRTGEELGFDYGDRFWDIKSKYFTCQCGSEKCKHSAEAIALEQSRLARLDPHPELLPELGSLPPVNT
The experiment is described as follows: MDA-MB-231 H3K9me2 in-cell Western assay (EHMT2 ICW). Format: cell-based. The note with it: Table II; MDA-MB-231 H3K9me2 in-cell Western; read-out: EHMT2 ICW (IC50 μM). From the text:
RPMI/Glutamax medium, Penicillin-Streptomycin, Heat Inactivated Fetal Bovine Serum, and D-PBS were purchased from Life Technologies (Grand Island, N.Y., USA). Odyssey blocking buffer, 800CW goat anti-mouse IgG (H+L) antibody, and Licor Odyssey Infrared Scanner were purchased from Licor Biosciences, Lincoln, Nebr., USA. […] 16% Paraformaldehyde was purchased from Electron Microscopy Sciences, Hatfield, Pa., USA).MDA-MB-231 cells were maintained in complete growth medium (RPMI supplemented with 10% v/v heat inactivated fetal bovine serum) and cultured at 37° C. under 5% CO2. UNC0638 was purchased from Sigma-Aldrich (St. Louis, Mo., USA).
Compound (100 nL) was added directly to 384-well cell plate. MDA-MB-231 cells (ATCC) were seeded in assay medium (RPMI/Glutamax supplemented with 10% v/v heat inactivated fetal bovine serum and 1% Penicillin/Streptomycin, Life Technologies) at a concentration of 3,000 cells per well to a Poly-D-Lysine coated 384-well cell culture plate with 50 μL per well. […] Plates were incubated at room temperature for 30 minutes and then incubated at 37° C., 5% CO2 for additional 48 hours. After the incubation, 50 μL per well of 8% paraformaldehyde (Electron Microscopy Sciences) in PBS was added to the plates and incubated at room temperature for 20 minutes. […] Next, 60 μL per well of Odyssey blocking buffer (Licor Biosciences) was added to each plate and incubated for 1 hour at room temperature. Blocking buffer was removed and 20 μL of monoclonal primary antibody α-H3K9me2 (Abcam) diluted 1:800 in Odyssey buffer with 0.1% Tween 20 (v/v) were added and plates were incubated overnight (16 hours) at 4° C. Plates were washed 5 times with 100 μL per well of wash buffer. Next 20 μL per well of secondary antibody was added (1:500 800CW donkey anti-mouse IgG (H+L) antibody (Licor Biosciences), 1:1000 DRAQ5 (Cell Signaling Technology) in Odyssey buffer with 0.1% Tween 20 (v/v)) and incubated for 1 hour at room temperature. The plates were washed 5 times with 100 μL per well wash buffer then 2 times with 100 μL per well of water. Plates were allowed to dry at room temperature then imaged on a Licor Odyssey Infrared Scanner (Licor Biosciences) which measured integrated intensity at 700 nm and 800 nm wavelengths. Both 700 and 800 channels were scanned.
First, the ratio for each well was determined by:
The average of the ratio values for each well was calculated and used to determine the percent inhibition for each test well in the plate. Control compound was serially diluted three-fold in DMSO for a total of 10 test concentrations beginning at 1 μM. Percent inhibition was calculated as: […]
IC50 curves were generated using triplicate wells per concentration of compound. […] IC50 values were calculated using a non-linear regression (variable slope-four parameter fit model) with by the following formula: […]

Each structure is given as a SMILES string. Structures can show the parent of a compound that is named as a salt.

As usually defined, the IC50 is the midpoint of a concentration-inhibition curve. In the case of `COc1ccc(Nc2cncc(NCC3CCN(C(C)=O)CC3)c2)cc1OCCCN1CCCC1` [Compound 184], the IC50 is above 10 µM.
For `CC(=O)N1CCC(CNc2ccnc(Nc3ccc(C)c(OCCCN4CCCC4)c3)n2)CC1` [Compound 145] the value was above 10 µM; for `COc1ccc(Nc2nccc(NCC3CCN(C(C)=O)CC3)n2)cc1OCC(C)CN1CCCC1` (stereo not shown) [Compound 183], 1 to 10 µM.
For `COc1ccc(Nc2nccc(N3CCC(NC(C)=O)CC3)n2)cc1OCCCN1CCCC1` [Compound 161] the value was above 10 µM; for `COc1ccc(Nc2nccc(N3CCC(OC)CC3)n2)cc1OCCCN1CCCC1` [Compound 149], above 10 µM; for `COCCN(C)c1ccnc(Nc2ccc(OC)c(OCCCN3CCCC3)c2)n1` [Compound 177], above 10 µM.
For `COc1ccc(Nc2nccc(N3CCC(C(C)(C)O)CC3)n2)cc1OCCCN1CCCC1` [Compound 147], the IC50 was above 10 µM.
For `COc1ccc(Nc2nccc(N(C)Cc3cccnc3)n2)cc1OCCCN1CCCC1` [Compound 135] the value was above 10 µM.
For `COc1ccc(Nc2nccc(N3CCN(c4ccccn4)CC3)n2)cc1OCCCN1CCCC1` [Compound 168] the value was 1 to 10 µM; for `COc1ccc(Nc2cc(CNC3CCNCC3)n(C)n2)cc1OCCCN1CCCC1` [Compound 126], above 10 µM; for `CNC(=O)c1cnc(Nc2ccc(OC)c(OCCCN3CCCC3)c2)nc1` [Compound 9, 2-((4-methoxy-3-(3-(pyrrolidin-1-yl)propoxy)phenyl)amino)-N-methylpyrimidine-5-carboxamide], above 10 µM.
For `COc1ccc(Nc2nccc(N3CCC(C(N)=O)CC3)n2)cc1OCCCN1CCCC1` [Compound 153] the value was above 10 µM; for `COc1ccc(Nc2nccc(N3CCCNC(=O)C3)n2)cc1OCCCN1CCCC1` [Compound 133], above 10 µM.
With `COc1cnc(Nc2cc(NCC3CCN(C(C)=O)CC3)ccn2)cc1OCCCN1CCCC1` [Compound 182], the 50% inhibitory concentration (IC50) is above 10 µM.
For `COc1ccc(Nc2ccnc(NCC3CCNCC3)n2)cc1OCCCN1CCCC1` [Compound 7, 4-N-[4-methoxy-3-[3-(pyrrolidin-1-yl)propoxy]phenyl]-2-N-(piperidin-4-ylmethyl)pyrimidine-2,4-diamine hydrochloride] the value was 1 to 10 µM; for `CNc1nc(Nc2ccc(OC)c(OCCCN3CCCC3)c2)ncc1F` [Compound 187], 1 to 10 µM.
With `COc1ccc(Nc2nccc(NCC3CCN(C(C)=O)CC3)n2)cc1OC(C)CCN1CCCC1` (stereo not shown) [Compound 195], the IC50 lay in the range of 1 to 10 µM.
For `COc1ccc(Nc2nccc(N(C)CC3CCN(C(C)=O)CC3)n2)cc1OCCCN1CCCC1` [Compound 172] the value was above 10 µM; for `COc1ccc(Nc2nccc(N3CCCN(C(C)=O)CC3)n2)cc1OCCCN1CCCC1` [Compound 138], above 10 µM; for `CNc1cccc(Nc2ccc(OC)c(OCCCN3CCCC3)c2)n1` [Compound 176], above 10 µM.
For `CNc1cc(Nc2ccc(OC)c(OCCCN3CCCC3)c2)cnn1` [Compound 188] the value was above 10 µM.
For `COc1ccc(Nc2nccc(N3CC(C(N)=O)C3)n2)cc1OCCCN1CCCC1` [Compound 179] the value was above 10 µM; for `COc1ccc(Nc2nccc(NC3CCS(=O)(=O)CC3)n2)cc1OCCCN1CCCC1` [Compound 152], above 10 µM.
As to `COc1ccc(Nc2nccc(NCC3CCN(C(C)=O)CC3)n2)cc1OCCCNc1ccccc1` [Compound 160], the half-maximal inhibitory concentration (IC50) is above 10 µM.
On to `COc1ccc(Nc2nccc(OCC3CCN(C(C)=O)CC3)n2)cc1OCCCN1CCCC1` [Compound 14, 1-(4-(((2-((4-methoxy-3-(3-(pyrrolidin-1-yl)propoxy)phenyl)amino)pyrimidin-4-yl)oxy)methyl)piperidin-1-yl)ethan-1-one], for which the IC50 was above 10 µM.
As for `COc1ccc(Nc2nc(NCC3CCNCC3)cc(N3CCCC3)n2)cc1OCCCN1CCCC1` [Compound 103], the figure is above 10 µM; as for `COc1ccc(Nc2nccc(N3CCNc4ccccc4C3)n2)cc1OCCCN1CCCC1` [Compound 154], above 10 µM.
As for `COc1ccc(Nc2nccc(N3CCc4nc[nH]c(=O)c4C3)n2)cc1OCCCN1CCCC1` [Compound 134], the IC50 was above 10 µM.
As for `CC(=O)N1CCC(CNc2ccnc(Nc3ccc(Cl)c(OCCCN4CCCC4)c3)n2)CC1` [Compound 8, 1-(4-(((2-((4-chloro-3-(3-(pyrrolidin-1-yl)propoxy)phenyl)amino)pyrimidin-4-yl)amino)methyl)piperidin-1-yl)ethan-1-one], the figure is 1 to 10 µM; as for `COc1ccc(Nc2nccc(N3CCN(C)C(=O)C3)n2)cc1OCCCN1CCCC1` [Compound 132], above 10 µM.
As for `COc1ccc(Nc2cc(N(C)CC3CCN(C(C)=O)CC3)ccn2)cc1OCCCN1CCCC1` [Compound 163], the figure is above 10 µM; as for `COc1ccc(Nc2cc(NCC3CCN(C(C)=O)CC3)cnn2)cc1OCCCN1CCCC1` [Compound 185], above 10 µM.
As for `COc1ccc(Nc2nccc(N3CCN(C(C)=O)CC3)n2)cc1OCCCN1CCCC1` [Compound 139], the figure is above 10 µM; as for `COc1ccc(Nc2nccc(NCC3CCN(C)CC3)n2)cc1OCCCNc1ccccc1` [Compound 159], 1 to 10 µM; as for `COc1ccc(Nc2nccc(NCc3ccc4[nH]ncc4c3)n2)cc1OCCCN1CCCC1` [Compound 164], above 10 µM.
In the case of `COc1ccc(Nc2nccc(NC3CN(C(C)=O)C3)n2)cc1OCCCN1CCCC1` [Compound 192], the IC50 lay within 1 to 10 µM.
As for `COc1ccc(Nc2nccc(N3CCS(=O)(=O)CC3)n2)cc1OCCCN1CCCC1` [Compound 169], the figure is above 10 µM.
